In PubChem BioAssay AID192 (DTP/NCI, 2004):
Several values for one entry are separate records, joined by “and”; a condition that tells them apart may be missing. Equal values may be shown once. Toxic doses and inconclusive results are not listed.

System: BDF1 mice, B16 melanoma ip, median survival T/C
Experiment: NCI In Vivo Anticancer Drug Screen. Data for tumor model B16 Melanoma (intraperitoneal) in B6D2F1 (BDF1) mice
Conditions: endpoint: median survival time, higher = longer survival
Procedure, shortened: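 Read-out: survival or tumor size, given as treated/control ratio. Controls received vehicle only; animals bore transplantable tumors.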

[1] = dose: 50.0 mg/kg/injection, schedule: Q01DX009 (ip), vehicle: saline with Tween-80
[2] = dose: 100.0 mg/kg/injection, schedule: Q01DX009 (ip), vehicle: saline
[3] = dose: 25.0 mg/kg/injection, schedule: Q01DX009 (ip), vehicle: Klucel (hydroxypropylcellulose) (HPC)
[4] = dose: 50.0 mg/kg/injection, schedule: Q01DX009 (ip), vehicle: Klucel (hydroxypropylcellulose) (HPC)
[5] = dose: 100.0 mg/kg/injection, schedule: Q01DX009 (ip), vehicle: Klucel (hydroxypropylcellulose) (HPC)
[6] = dose: 12.5 mg/kg/injection, schedule: Q01DX009 (ip), vehicle: Klucel (hydroxypropylcellulose) (HPC)
[7] = dose: 200.0 mg/kg/injection, schedule: Q01DX009 (ip), vehicle: Klucel (hydroxypropylcellulose) (HPC)

For `CC(=O)Nc1ccc(OC(=O)Nc2cccc3ccccc23)cc1`, the T/C (dose: 50.0 mg/kg/injection, schedule: Q04DX003 (ip), vehicle: Klucel (hydroxypropylcellulose) (HPC)) was 96 % of control, the T/C (dose: 100.0 mg/kg/injection, schedule: Q04DX003 (ip), vehicle: Klucel (hydroxypropylcellulose) (HPC)) was 106 % of control and the T/C (dose: 200.0 mg/kg/injection, schedule: Q04DX003 (ip), vehicle: Klucel (hydroxypropylcellulose) (HPC)) was 93 % of control.

`CC(C)(C)OC(=O)NC(COCc1ccccc1)C(=O)O` (stereo not drawn) was tested, and the T/C [1] was 90 % of control and the T/C (dose: 100.0 mg/kg/injection, schedule: Q01DX009 (ip), vehicle: saline with Tween-80) was 90 % of control.

`COc1cc(NC(=O)CC(C)=O)cc(OC)c1OC` was tested, and the T/C [2] was 112 % of control, the T/C (dose: 132.0 mg/kg/injection, schedule: Q01DX009 (ip), vehicle: saline with Tween-80) was 100 % of control and the T/C (dose: 200.0 mg/kg/injection, schedule: Q01DX009 (ip), vehicle: saline with Tween-80) was 95 % of control. For the same compound, the T/C (dose: 300.0 mg/kg/injection, schedule: Q01DX009 (ip), vehicle: saline with Tween-80) was 95 % of control and the T/C (dose: 400.0 mg/kg/injection, schedule: Q01DX009 (ip), vehicle: saline) was 90 % of control.

In the case of `C/C(=N\[N+](C)(C)C)c1ccc2ccccc2c1`, the T/C [3] was 93 % of control and the T/C [4] was 100 % of control.

With `Cc1ccc(Cl)cc1NC(=O)c1cccc(C(=O)Nc2cc(Cl)ccc2C)c1` the T/C [4] was 96 % of control and the T/C [5] was 93 % of control.

In the case of `COC1OC(CO)C(O)C(NC(=O)N(C)N=O)C1O` (stereo not drawn), the T/C (dose: 12.5 mg/kg/injection, schedule: Q01DX009 (ip), vehicle: saline) was 105 % of control, the T/C (dose: 50.0 mg/kg/injection, schedule: Q01DX009 (ip), vehicle: saline) was 150 % of control and the T/C [2] was 176 % of control and 195 % of control. For the same compound, the T/C (dose: 200.0 mg/kg/injection, schedule: Q01DX009 (ip), vehicle: saline) was 196 % of control and 209 % of control.

For `CC1=CC(=O)C(O)C2(C)C1CC(O)C13COC4(C)C(OC(=O)C41)C(O)C23` (stereo not drawn), the T/C (dose: 1.0 mg/kg/injection, schedule: Q01DX009 (ip), vehicle: saline with Tween-80) was 97 % of control, the T/C (dose: 2.0 mg/kg/injection, schedule: Q01DX009 (ip), vehicle: saline with Tween-80) was 101 % of control and the T/C (dose: 4.0 mg/kg/injection, schedule: Q01DX009 (ip), vehicle: saline with Tween-80) was 97 % of control.

In the case of `CCCCCCCCCCCCCCCCNS(=O)(=O)c1ccc(NN)cc1`, the T/C [6] was 93 % of control, the T/C [3] was 96 % of control and the T/C [4] was 89 % of control and 90 % of control.

`C=CCCCCCCCCC(=O)N(CCOC)CCOC` was tested, and the T/C (dose: 25.0 mg/kg/injection, schedule: Q01DX009 (ip), vehicle: saline with Tween-80) was 115 % of control, the T/C (dose: 25.0 mg/kg/injection, schedule: Q04DX003 (ip), vehicle: saline with Tween-80) was 97 % of control and the T/C [1] was 102 % of control. The T/C (dose: 50.0 mg/kg/injection, schedule: Q04DX003 (ip), vehicle: saline with Tween-80) was 91 % of control and the T/C (dose: 100.0 mg/kg/injection, schedule: Q04DX003 (ip), vehicle: saline with Tween-80) was 89 % of control.

With `OCc1cc(Cl)ccc1O` the T/C [4] was 103 % of control, the T/C [5] was 96 % of control and the T/C [7] was 86 % of control.

With `CC(=O)NC(Cc1cc(I)c(O)c(I)c1)C(=O)O` (stereo not drawn) the T/C (dose: 6.25 mg/kg/injection, schedule: Q01DX009 (ip), vehicle: Klucel (hydroxypropylcellulose) (HPC)) was 103 % of control, the T/C [6] was 108 % of control and the T/C [3] was 96 % of control and 101 % of control. The T/C [4] was 95 % of control, the T/C [5] was 98 % of control and the T/C [7] was 93 % of control.

`O=C1C(Br)=C(Br)C(=O)C1(Br)Br` was tested, and the T/C (dose: 1.56 mg/kg/injection, schedule: Q01DX009 (ip), vehicle: saline) was 100 % of control, the T/C (dose: 3.13 mg/kg/injection, schedule: Q01DX009 (ip), vehicle: saline) was 105 % of control and the T/C (dose: 3.13 mg/kg/injection, schedule: Q04DX003 (ip), vehicle: saline with Tween-80) was 94 % of control. For the same compound, the T/C (dose: 6.25 mg/kg/injection, schedule: Q01DX009 (ip), vehicle: saline) was 102 % of control and the T/C (dose: 6.25 mg/kg/injection, schedule: Q04DX003 (ip), vehicle: saline with Tween-80) was 89 % of control.
